Legend:
[1] = biological target: T1, MAGL (Homo sapiens, UniProt Q99685); test: serine hydrolase selectivity panel: MAGL
T1 sequence (Q99685 1-303): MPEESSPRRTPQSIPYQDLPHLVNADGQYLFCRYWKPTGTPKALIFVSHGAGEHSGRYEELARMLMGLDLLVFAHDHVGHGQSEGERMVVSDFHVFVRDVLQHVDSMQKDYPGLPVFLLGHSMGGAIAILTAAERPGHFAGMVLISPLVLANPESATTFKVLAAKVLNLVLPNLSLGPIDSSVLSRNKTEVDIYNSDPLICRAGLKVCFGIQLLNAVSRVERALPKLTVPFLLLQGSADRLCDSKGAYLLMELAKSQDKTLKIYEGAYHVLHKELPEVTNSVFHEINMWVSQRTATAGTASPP

[2] = biological target: T2, FAAH (Felis catus, UniProt A0ABI8A862); conditions: read-out: FAAH IC50, Cat; brain microsome preparations
T2 sequence (A0ABI8A862 1-541): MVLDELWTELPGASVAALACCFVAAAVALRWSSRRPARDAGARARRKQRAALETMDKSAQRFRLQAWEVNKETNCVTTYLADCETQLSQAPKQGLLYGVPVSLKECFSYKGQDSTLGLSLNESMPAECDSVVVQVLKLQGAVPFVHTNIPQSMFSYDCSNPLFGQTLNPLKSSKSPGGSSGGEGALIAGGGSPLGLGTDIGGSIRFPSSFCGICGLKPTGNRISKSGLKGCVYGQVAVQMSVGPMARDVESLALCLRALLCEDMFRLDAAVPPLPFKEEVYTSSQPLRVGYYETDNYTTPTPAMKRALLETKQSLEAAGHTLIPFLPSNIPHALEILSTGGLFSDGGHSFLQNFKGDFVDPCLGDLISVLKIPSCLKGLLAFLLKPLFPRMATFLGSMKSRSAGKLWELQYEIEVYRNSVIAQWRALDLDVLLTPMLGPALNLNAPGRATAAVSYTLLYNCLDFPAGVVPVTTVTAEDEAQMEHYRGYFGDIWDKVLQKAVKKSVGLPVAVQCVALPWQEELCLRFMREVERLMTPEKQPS

[3] = biological target: T3, hFAAH (Homo sapiens, UniProt O00519); test: recombinant FAAH enzyme with fluorescent substrate OMP (hFAAH IC50, screen); type: biochemical
T3 construct: made in house
T3 sequence (O00519 1-579): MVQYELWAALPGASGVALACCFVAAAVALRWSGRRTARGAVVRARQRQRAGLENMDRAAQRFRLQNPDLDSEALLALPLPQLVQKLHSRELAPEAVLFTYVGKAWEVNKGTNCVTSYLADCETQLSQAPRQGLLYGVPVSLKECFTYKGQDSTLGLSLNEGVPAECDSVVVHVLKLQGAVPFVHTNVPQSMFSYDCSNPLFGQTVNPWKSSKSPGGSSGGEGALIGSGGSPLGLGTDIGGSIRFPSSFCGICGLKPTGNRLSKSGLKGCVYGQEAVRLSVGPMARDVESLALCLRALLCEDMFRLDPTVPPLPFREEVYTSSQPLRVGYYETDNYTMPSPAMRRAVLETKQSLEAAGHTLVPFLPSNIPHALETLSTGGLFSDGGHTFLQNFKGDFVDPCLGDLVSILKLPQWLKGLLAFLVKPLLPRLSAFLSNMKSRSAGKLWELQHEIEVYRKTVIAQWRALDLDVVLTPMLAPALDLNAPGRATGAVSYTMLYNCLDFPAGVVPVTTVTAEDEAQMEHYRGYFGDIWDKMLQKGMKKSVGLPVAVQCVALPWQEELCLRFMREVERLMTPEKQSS

[4] = biological target: T4, hsEH (Homo sapiens, UniProt P34913); test: human sEH inhibition (hsEH IC50); type: biochemical
T4 sequence (P34913 1-555): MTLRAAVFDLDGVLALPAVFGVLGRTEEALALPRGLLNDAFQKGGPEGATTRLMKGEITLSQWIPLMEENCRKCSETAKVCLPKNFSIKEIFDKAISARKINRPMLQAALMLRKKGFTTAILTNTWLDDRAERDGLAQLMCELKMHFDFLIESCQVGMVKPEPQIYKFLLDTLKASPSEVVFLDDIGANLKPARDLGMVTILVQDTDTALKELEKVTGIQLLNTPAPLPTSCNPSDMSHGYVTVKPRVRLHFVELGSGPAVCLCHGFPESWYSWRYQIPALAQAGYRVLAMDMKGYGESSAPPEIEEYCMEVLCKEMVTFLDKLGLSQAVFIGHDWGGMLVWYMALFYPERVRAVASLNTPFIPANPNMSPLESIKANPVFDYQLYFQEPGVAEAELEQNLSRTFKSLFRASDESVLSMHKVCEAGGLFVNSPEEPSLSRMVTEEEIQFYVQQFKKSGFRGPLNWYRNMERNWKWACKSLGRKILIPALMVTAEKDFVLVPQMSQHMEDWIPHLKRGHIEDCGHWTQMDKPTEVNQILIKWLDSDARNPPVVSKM

[5] = biological target: T3, hFAAH; test: hFAAH inhibition kinetics (KD, k2); type: biochemical
[6] = biological target: T5, sEH (Rattus norvegicus, UniProt P80299); test: biochemical
T5 sequence (P80299 1-554): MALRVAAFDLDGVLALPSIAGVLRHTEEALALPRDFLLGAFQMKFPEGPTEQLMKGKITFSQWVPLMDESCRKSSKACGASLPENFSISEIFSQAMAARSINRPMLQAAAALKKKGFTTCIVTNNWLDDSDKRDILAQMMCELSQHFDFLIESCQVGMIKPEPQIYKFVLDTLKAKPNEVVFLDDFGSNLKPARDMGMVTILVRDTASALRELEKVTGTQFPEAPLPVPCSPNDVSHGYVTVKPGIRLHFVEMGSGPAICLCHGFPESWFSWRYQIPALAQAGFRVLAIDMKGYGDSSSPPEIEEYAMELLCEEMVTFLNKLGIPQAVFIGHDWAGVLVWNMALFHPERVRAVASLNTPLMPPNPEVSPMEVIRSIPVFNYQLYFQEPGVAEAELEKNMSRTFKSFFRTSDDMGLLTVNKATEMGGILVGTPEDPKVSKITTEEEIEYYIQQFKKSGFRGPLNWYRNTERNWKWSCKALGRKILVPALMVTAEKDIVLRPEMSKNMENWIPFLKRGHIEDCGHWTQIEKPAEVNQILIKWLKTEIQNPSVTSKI

IC50 [1] | Compound | IC50 [2] | IC50 [3] | IC50 [4] | increase of activity/potency towards sEH [4] | Kd [5] | hFAAH k2 [5] | IC50 [6]
> 10000 nM | O=C(Nc1ccc(OC(F)(F)F)cc1)N[C@H]1CC[C@H](Oc2ccc(C(=O)OCc3ccccc3)cc2)CC1 [Compound A-14, benzyl 4-((trans-4-(3-(4-(trifluoromethoxy)phenyl)ureido)cyclohexyl)oxy) benzoate] | > 1000 nM |  |  |  |  |  | 
> 10000 nM | O=C(Nc1ccc(OC(F)(F)F)cc1)N[C@H]1CC[C@H](Oc2ccc(O)cc2)CC1 [Compound A-21, trans-1-(−4-(4-hydroxy-phenoxy)cyclohexyl)-3-(4-(trifluoromethoxy)phenyl)urea] | 130 nM |  |  |  |  |  | 
 | COc1ccc(NC(=O)N2CCC(Cc3cnc4ccccc4c3)CC2)cc1 [Compound B-5, N-(4-methoxyphenyl)-4-(quinolin-3-ylmethyl)piperidine-1-carboxamide] |  | 32 nM | 130 ± 40 nM | 4 fold | 24 ± 4 nM | 0.37 ± 0.03 min⁻¹ | 
 | COc1ccc(NC(=O)N2CCC(Cc3ccc4ccccc4c3)CC2)cc1 [Compound B-8, N-(4-methoxyphenyl)-4-(naphthalen-2-ylmethyl)piperidine-1-carboxamide] |  | 7.4 nM | 120 ± 30 nM |  | 18 ± 4 nM | 0.26 ± 0.03 min⁻¹ | 
 | COc1ccc(NC(=O)N2CCC(c3nc(-c4ccccc4)cs3)CC2)cc1 [Compound B-10, N-(4-methoxyphenyl)-4-(4-phenylthiazol-2-yl)piperidine-1-carboxamide] |  | 250 nM | 570 ± 170 nM |  | 750 ± 20 nM | 0.55 ± 0.02 min⁻¹ | 
 | O=C(Nc1cccnc1)N1CCC(Cc2cccc(Oc3ccc(C(F)(F)F)cn3)c2)CC1 [PF-3845] | < 0.1 nM | 0.4 nM |  |  |  |  | 

Compound | IC50 [1] | IC50 [2] | IC50 [3] | IC50 [4] | increase of activity/potency towards sEH [4] | Kd [5] | hFAAH k2 [5] | IC50 [6]
O=C(Nc1ccc(OC(F)(F)F)cc1)N[C@H]1CC[C@H](Oc2ccc(C(=O)O)cc2)CC1 [t-TUCB, trans-4-{4-[3-(4-trifluoromethoxyphenyl)-ureido]cyclohexyloxy}benzoic acid] | > 10000 nM | > 1000 nM |  |  |  |  |  | 54 nM

Reference: patent publication US11873288B2, “Inhibitors for soluble epoxide hydrolase (sEH) and fatty acid amide hydrolase (FAAH)” (The Regents of the University of California, priority 2016, dated 2024)
